According to ChEMBL document CHEMBL4364328, “Inhibition of ACSS2 for Treatment of Cancer and Neuropsychiatric Diseases” (ACS Med Chem Lett, 2019):
pIC50: −log10 of the molar value.

target: Acetyl-coenzyme A synthetase, cytoplasmic (Homo sapiens, UniProt Q9NR19); test: Inhibition of ACSS2 in human MDA-MB-468 cells assessed as 13C-acetate incorporation incubated for 5 hrs measured under hypoxic conditions by LCMS analysis; assay type: cell-based
Sequence (Q9NR19 whole entry): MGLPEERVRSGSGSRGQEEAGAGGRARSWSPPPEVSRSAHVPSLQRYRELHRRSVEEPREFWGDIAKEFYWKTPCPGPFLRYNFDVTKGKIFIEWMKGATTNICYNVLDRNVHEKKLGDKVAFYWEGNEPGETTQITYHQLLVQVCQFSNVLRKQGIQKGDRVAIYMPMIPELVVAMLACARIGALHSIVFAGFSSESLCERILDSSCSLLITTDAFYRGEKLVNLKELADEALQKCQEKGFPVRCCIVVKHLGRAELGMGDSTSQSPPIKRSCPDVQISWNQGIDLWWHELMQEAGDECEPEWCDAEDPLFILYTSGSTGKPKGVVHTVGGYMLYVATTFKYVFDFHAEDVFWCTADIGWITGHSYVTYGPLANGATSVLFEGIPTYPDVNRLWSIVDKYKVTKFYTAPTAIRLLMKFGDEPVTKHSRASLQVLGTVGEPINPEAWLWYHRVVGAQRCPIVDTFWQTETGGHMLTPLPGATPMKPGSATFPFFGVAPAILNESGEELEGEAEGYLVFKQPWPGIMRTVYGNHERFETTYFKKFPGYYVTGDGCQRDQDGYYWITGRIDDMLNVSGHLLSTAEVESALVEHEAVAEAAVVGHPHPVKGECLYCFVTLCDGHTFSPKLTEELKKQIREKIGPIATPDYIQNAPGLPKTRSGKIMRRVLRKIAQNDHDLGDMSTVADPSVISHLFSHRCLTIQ

pIC50 | SMILES
8.58 | CC1=NN(c2ccc(OC(F)F)cc2)C(=O)C1C(=O)Nc1cccc(C(C)(F)F)c1 (stereo unspecified)
9.33 | CCC(F)(F)c1cccc(NC(=O)C2C(=O)N(c3ccc(OC)cc3)N=C2C)c1 (stereo unspecified)
8.30 | COc1ccc(N2N=C(C)C(C(=O)Nc3cccc(C(C)(F)F)c3)C2=O)cn1 (stereo unspecified)
8.96 | COc1ccc(N2N=C(C)C(C(=O)Nc3cccc(C(C)(F)F)c3)C2=O)cc1-c1ncco1 (stereo unspecified)
8.68 | COC(=O)c1cccc(N2N=C(C)C(C(=O)Nc3cccc(-c4ccco4)c3)C2=O)c1 (stereo unspecified)
9.00 | COc1ccc(N2N=C(C)C(C(=O)Nc3cccc(C(C)(F)F)c3)C2=O)cc1OC (stereo unspecified)
8.41 | COc1ccc(N2N=C(C)C(C(=O)Nc3cccc(-c4ccco4)c3)C2=O)cn1 (stereo unspecified)
9.48 | CC1=NN(c2ccc(OC(F)F)c(-c3cccnc3)c2)C(=O)C1C(=O)Nc1cccc(C(C)(F)F)c1 (stereo unspecified)
8.35 | COc1ccc(N2N=C(C)C(C(=O)Nc3cccc(C(C)(F)F)c3)C2=O)cc1 (stereo unspecified)
8.40 | CC1=NN(c2ccccc2)C(=O)C1C(=O)Nc1cccc(C(C)(F)F)c1 (stereo unspecified)
8.49 | COc1ccc(N2N=C(C)C(C(=O)Nc3cccc(-c4ccco4)c3)C2=O)cc1 (stereo unspecified)
